Laboratory results from patent US5658916A, “Drug active on the central nervous system, a process for the preparation thereof and pharmaceutical compositions containing it” (Vita-Invest, S.A., priority 1994, dated 1997).
Where two headings read alike, the source gives them in different places.

Tests used:
α1-adrenergic receptors = assay: Displacement of 3H-prazosin binding to α1-adrenergic receptors (rat brain cortex); details: read-out: Displacement (Ki, nM) of the binding of 3H-prazosin to α1-adrenergic receptors, 3H-prazosin 0.5 nM, 37° C., 15 min, pH 7.7
Method: Binding to at adrenergen receptors
These were carried out as described by Morrow et al . […] Rat brain cortical tissue was obtained, with homogenization in 20 volumes of Tris-HCl buffer in ice (50 mM, pH=7.7, 4° C.). The homogenate was centrifuged (25,000 rpm/12 min at 4° C.) and the pellet was rehomogenized, being finally resuspended in 50 mM Tris-HCl buffer, pH=7.7 (dilution 1:200). […] The incubation (37° C., 15 min) was terminated by rapid filtering through Whatman GF/C filters, followed by washing twice with […] of Tris-HCl buffer, 50 mM.

5HT2 receptors = target: T1, 5HT2 receptors (Rattus norvegicus, UniProt P14842); assay: Displacement of 3H-ketanserine binding to 5HT2 receptors (front cortex of rat brain); details: 3H-ketanserine 0.5 nM, 37° C., 15 min
T1 construct: Front cortex of rat brain was prepared; from tissue; host or cells: rat brain frontal cortex, crude membrane homogenate
T1 sequence (P14842 whole entry): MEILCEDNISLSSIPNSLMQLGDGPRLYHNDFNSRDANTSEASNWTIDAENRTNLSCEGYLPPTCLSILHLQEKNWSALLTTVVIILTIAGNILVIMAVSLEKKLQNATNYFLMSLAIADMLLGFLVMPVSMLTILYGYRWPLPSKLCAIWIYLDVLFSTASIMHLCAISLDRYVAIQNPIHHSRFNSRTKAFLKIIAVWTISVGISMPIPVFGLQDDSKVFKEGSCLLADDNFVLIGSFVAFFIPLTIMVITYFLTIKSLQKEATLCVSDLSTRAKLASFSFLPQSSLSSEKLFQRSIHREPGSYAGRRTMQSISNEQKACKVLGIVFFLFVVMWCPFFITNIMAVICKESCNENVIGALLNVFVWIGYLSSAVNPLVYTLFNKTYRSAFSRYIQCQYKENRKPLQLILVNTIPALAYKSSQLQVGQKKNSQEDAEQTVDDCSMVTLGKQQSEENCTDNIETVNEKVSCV
Method: These were carried out as described by Leysen et al (1978), with certain modifications. […] The incubation (37° C., 15 min) was terminated by rapid filtering through Whatman GF/C filters.

D2 receptors = target: T2, D2 receptors (Rattus norvegicus, UniProt P61169); assay: Displacement of 3H-spiroperidol binding to D2 receptors (striate tissue of rat brain)
T2 construct: Striate tissue of rat brain was prepared; from tissue; host or cells: rat brain striatum, crude membrane homogenate
T2 sequence (P61169 whole entry): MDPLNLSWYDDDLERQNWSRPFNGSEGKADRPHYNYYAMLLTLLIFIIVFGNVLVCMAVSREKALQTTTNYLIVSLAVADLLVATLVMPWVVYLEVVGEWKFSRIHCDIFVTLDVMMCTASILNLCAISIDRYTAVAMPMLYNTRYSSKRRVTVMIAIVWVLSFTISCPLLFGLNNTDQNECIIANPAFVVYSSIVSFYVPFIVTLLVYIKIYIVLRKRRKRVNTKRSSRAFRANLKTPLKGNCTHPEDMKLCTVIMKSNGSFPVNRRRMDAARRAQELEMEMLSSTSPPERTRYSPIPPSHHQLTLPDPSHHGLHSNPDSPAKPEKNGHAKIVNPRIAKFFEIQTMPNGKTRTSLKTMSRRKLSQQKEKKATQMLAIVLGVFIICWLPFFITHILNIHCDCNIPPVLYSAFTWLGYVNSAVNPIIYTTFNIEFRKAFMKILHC
Method: Studies on binding to D2 receptors.
These were carried out as described by Leysen et al (1978), with certain modifications. Striate tissue of rat brain was prepared, with homogenization in 20 volumes of Tris-HCl buffer in ice (50 mM, pH=7.7, 4° C.), The homogenate was centrifuged (40,000 g, 10 min) and the pellet was suspended in 10 volumes of cold buffer and recentrifuged. The final pellet was suspended in 10 volumes of 50 mM Tris-HCl buffer, with 120 mM of NaCl and 5 mM of […] (pH=7.7). The displacement studies were carried out with 25 μl of ^3 H-spiroperidol (0.2 nM, NEN), 25 μl of cold displacer and 200 μl of tissue. The incubation (37° C., 15 min) was terminated by rapid filtering through Whatman GF/C filters.

Row | Ki (D2 receptors; striate rat tissue, 3H-spiroperidol 0.2 nM, 37° C., 15 min, pH 7.7) | SMILES | Ki (α1-adrenergic receptors) | Ki (5HT2 receptors) | Ki (D2 receptors)
1 | – | Cc1nc2n(c(=O)c1CCN1CC=C(c3noc4cc(F)ccc34)CC1)CCCC2 [Compound I, 3-{2-[4-(6-fluoro-benzo[d]isoxazol-3-yl)-3,6-dihydro-2H-pyridin-1-yl]-ethyl}-2-methyl-6,7,8,9-tetrahydropyrido[1,2-a]-pyrimidin-4-one] | 14.6 nM | 0.0017 µM | 0.022 µM
2 | 0.0477 µM | Cc1nc2sccn2c(=O)c1CCN1CCC(=C(c2ccc(F)cc2)c2ccc(F)cc2)CC1 [Ritanserine, reference compound] | 29.6 nM | – | –
